Activity calls are given as the source filed them. How the calls were made is not given here.
Molecular target: Chaperone protein DnaK (Escherichia coli (strain K12)) (UniProt P0A6Y8)
Experiment: E. coli DnaK SBD ligand binding – biophysical, NMR, chaperone (AID 1033)
Conditions: Purified DnaK SBD

Chain of Chaperone protein DnaK (Escherichia coli (strain K12)) (P0A6Y8 whole entry, looked up): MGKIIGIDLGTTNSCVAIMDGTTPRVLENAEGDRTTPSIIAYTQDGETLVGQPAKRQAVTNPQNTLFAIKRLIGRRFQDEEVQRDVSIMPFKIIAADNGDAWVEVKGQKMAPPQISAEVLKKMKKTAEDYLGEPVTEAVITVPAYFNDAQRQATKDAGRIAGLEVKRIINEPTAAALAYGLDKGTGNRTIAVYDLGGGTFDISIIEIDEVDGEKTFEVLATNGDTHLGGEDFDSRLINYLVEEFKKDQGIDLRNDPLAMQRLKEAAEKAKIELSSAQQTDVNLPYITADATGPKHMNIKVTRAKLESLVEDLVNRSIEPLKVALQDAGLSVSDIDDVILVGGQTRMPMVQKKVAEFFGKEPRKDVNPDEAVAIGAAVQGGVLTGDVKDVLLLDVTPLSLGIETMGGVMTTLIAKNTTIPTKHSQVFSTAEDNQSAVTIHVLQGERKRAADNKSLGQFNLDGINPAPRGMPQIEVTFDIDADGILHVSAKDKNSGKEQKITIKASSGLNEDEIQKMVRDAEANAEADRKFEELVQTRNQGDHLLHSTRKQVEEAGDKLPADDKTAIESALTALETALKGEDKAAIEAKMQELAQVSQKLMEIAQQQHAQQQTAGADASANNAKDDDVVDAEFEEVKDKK

SMILES | Kd
c1ccc(-c2nsc(N3CCCNCC3)n2)cc1 | > 4 mM (inactive)
NC(N)=Nc1nc2ccccc2o1 | > 4 mM (inactive)
COc1cc(C(=O)NCC2CCCO2)cc(OC)c1OC (stereo not given) | > 4 mM (inactive)
Cc1nn(C)c(C)c1NC(=S)NC1CCCC1 | > 4 mM (inactive)
CC(=O)N1CCN(S(=O)(=O)c2ccccc2)CC1 | > 4 mM (inactive)
CCc1cc2c(SCC(=O)O)ncnc2s1 | > 4 mM (inactive)
Cc1cc(=O)n2[nH]cnc2n1 | > 4 mM (inactive)
Cn1nc(-c2ccccc2)cc1N | > 4 mM (inactive)
Cc1nnsc1C(=O)N(C)c1ccccc1 | > 4 mM (inactive)
CCOC(=O)CN1C(=O)c2ccccc2C1=O | > 4 mM (inactive)
O=C(O)c1ccc(CN2CCCCC2)o1 | > 4 mM (inactive)
O=[n+]1cc(C2=CC=CCC2)n([O-])c2c1CCCCC2 | > 4 mM (inactive)
CC(=O)Nc1ccn(Cc2c(F)cccc2Cl)n1 | > 4 mM (inactive)
O=C(Nc1ccccc1N1CCCC1)c1cccnc1 | > 4 mM (inactive)
CS(=O)(=O)Nc1cc2c3c(c1)CCN3C(=O)CC2 | > 4 mM (inactive)
Cc1ccc(S(=O)(=O)CCc2ccccn2)cc1 | > 4 mM (inactive)
Nc1cccc(CC(=S)N2CCOCC2)c1 | > 4 mM (inactive)
C[C@]12C=CC(=O)C=C1CCC1C2CC[C@]2(C)C(=O)CCC12 (stereo not given in full) | > 4 mM (inactive)
O=C(NCc1ccccn1)c1ccc(Cl)cc1Cl | > 4 mM (inactive)
COCC(=O)OCn1nnc2ccccc2c1=O | > 4 mM (inactive)
NCc1ccc(-c2ccccn2)s1 | > 4 mM (inactive)
COC1CC(O[C@H]2CC[C@]3(C=O)C4CC[C@]5(C)C(C6=CC(=O)OC6)CC[C@]5(O)C4CC[C@]3(O)C2)OC(C)C1O (stereo not given in full) | > 4 mM (inactive)

SMILES | Kd
CC(=O)Nc1ccccc1OCC(N)=O | > 4 mM (inactive)
Cc1nn(C)c(Cl)c1S(=O)(=O)N1CCOCC1 | > 4 mM (inactive)
CCCCCc1c2c(cc(O)c1C(=O)O)OC(=O)c1c(cc(OC)cc1C(=O)CCCC)O2 | > 4 mM (inactive)
O=C1CNC(=O)N1Cc1ccc(Br)cc1 | > 4 mM (inactive)
Cc1cc(C)n(-c2nc(N)cc(=O)[nH]2)n1 | > 4 mM (inactive)
Cc1cc(C)c(C(N)=O)c(=S)[nH]1 | > 4 mM (inactive)
Cc1ccc(C(=O)N2CCC(C(N)=O)CC2)cc1C | > 4 mM (inactive)
NCC(N)C(=O)c1ccccc1 (stereo not given) | > 4 mM (inactive)
Cc1n[nH]c(C)c1NC(=O)c1cccc(F)c1 | > 4 mM (inactive)
O=C1CNc2cc(C(=O)O)ccc2N1 | > 4 mM (inactive)
O=C(c1ccc(Cl)c(F)c1F)N1CCCC1 | > 4 mM (inactive)
CC(C)CCCC1(C)C=Cc2c(O)c3c(c(CCC(C)C)c2O1)OC12C(CC4CC1C(C)(C)OC2(CCC(C)C(=O)O)C4O)C3=O (stereo not given) | > 4 mM (inactive)
CC(=O)O[C@H]1C(=O)[C@@]2(C)C([C@H](OC(=O)c3ccccc3)[C@]3(O)C[C@H](OC(=O)[C@H](O)[C@@H](NC(=O)c4ccccc4)c4ccccc4)C(C)=C1C3(C)C)[C@]1(OC(C)=O)CO[C@@H]1C[C@@H]2O (stereo not given in full) | > 4 mM (inactive)
O=C1CN2C(=N1)N(Cc1ccccc1)c1ccccc12 | > 4 mM (inactive)
Cc1ccccc1N1CCN(C(=O)C2CCCCC2)CC1 | > 4 mM (inactive)
O=C(Nc1ccccc1F)c1ccncc1 | > 4 mM (inactive)
Cc1noc(C)c1C(=O)Nc1ccc2c(c1)CCC2 | > 4 mM (inactive)
O=C(NCc1cccs1)c1ccc2c(c1)OCCO2 | > 4 mM (inactive)
COCCn1c(C)cc(O)cc1=O | > 4 mM (inactive)
Cc1cccc(OCc2nnc(N)s2)c1 | > 4 mM (inactive)
Nc1ccc2c(c1)CCC2=O | > 4 mM (inactive)
O=C(O)c1onc2ccccc12 | > 4 mM (inactive)

SMILES | Kd
CC1(C)Oc2ccc3ccc(=O)oc3c2CC1O (stereo not given) | > 4 mM (inactive)
Nc1ccc2c(c1)CCCC2=O | > 4 mM (inactive)
NC(N)=NOCC[C@H](N)C(=O)O | > 4 mM (inactive)
S=C(NC1=NCCS1)Nc1ccccc1 | > 4 mM (inactive)
COc1cc(OC)c2c(=O)c(-c3ccc4c(c3)OCO4)coc2c1 | > 4 mM (inactive)
S=c1nc2c(n[nH]1)[nH]c1ccccc12 | > 4 mM (inactive)
C=C1CCC2C(CC2(C)C)C(=O)CCC1O (stereo not given) | > 4 mM (inactive)
CCOC(=O)c1[nH]c(C)cc1C | > 4 mM (inactive)
O=c1sc2ccccc2n1CN1CCOCC1 | > 4 mM (inactive)
CCCn1cnc2sc(C(N)=O)c(C)c2c1=O | > 4 mM (inactive)
OCc1ccc2nsnc2c1 | > 4 mM (inactive)
Oc1ccc(/C=C/c2cc(O)cc(O)c2)cc1 | > 4 mM (inactive)
CC(=O)Oc1c2c(c(CC=C(C)C)c3c1C(=O)C1=C[C@@H]4CC5C(C)(C)OC(C/C=C(\C)C(=O)O)(C4=O)[C@@]15O3)OC(C)(CCC=C(C)C)C=C2 (stereo not given in full) | > 4 mM (inactive)
CC(C)CCCC(C)C1CCC2C3C[C@@H](O)[C@@]4(O)C[C@@H](O)CC[C@]4(C)C3CC[C@]12C (stereo not given in full) | > 4 mM (inactive)
OCC1CCCCCN1 (stereo not given) | > 4 mM (inactive)
Cc1ccccc1N1C(=O)CC(=O)NC1=O | > 4 mM (inactive)
O=c1oc(-c2ccccc2)nc2c1cnn2-c1ccccc1 | > 4 mM (inactive)
Cc1nn(-c2ccccc2)nc1CO | > 4 mM (inactive)
CCSc1nnc(-c2ccccc2N)c(=O)[nH]1 | > 4 mM (inactive)
CC(C)n1c(-c2ccncc2)n[nH]c1=S | > 4 mM (inactive)
Nc1ncnc2c1ncn2CCN1CCOCC1 | > 4 mM (inactive)
Nc1cc(F)ccc1-n1ccnc1 | > 4 mM (inactive)

SMILES | Kd
COc1c2ccoc2cc2oc(C)cc(=O)c12 | > 4 mM (inactive)
O=C(O)c1cc(=O)[nH]c2ccccc12 | > 4 mM (inactive)
CC(C)Nc1nc2n(c(=O)n1)CCN2C(C)C | > 4 mM (inactive)
CC(=O)OC[C@@]1(O)C[C@@]23CCC4c5ccoc5CC[C@]4(C)C2CC[C@@H]1C3 (stereo not given in full) | > 4 mM (inactive)
COCC(=O)Nc1c(C(N)=O)oc2ccccc12 | > 4 mM (inactive)
NS(=O)(=O)c1ccccc1Cl | > 4 mM (inactive)
O=C1Cn2c(nc3ccccc32)N1c1ccccc1F | > 4 mM (inactive)
COc1ccc2c(c1)OCC(Cc1ccc(OC)c(OC)c1)C2=O (stereo not given) | > 4 mM (inactive)
NC(=O)C1(S(=O)(=O)c2ccccc2)CC1 | > 4 mM (inactive)
COCc1c(CN)cnc(C)c1N | > 4 mM (inactive)
Nc1c(N2CCCC2)cnn(-c2ccccc2)c1=O | > 4 mM (inactive)
CC[C@@H]1[C@@H](O)N2C3C[C@H]1C1C(O)[C@]4(C[C@@H]12)c1ccccc1N(C)[C@@H]34 (stereo not given in full) | > 4 mM (inactive)
CC(C)Nc1ncnc2c1nnn2C | > 4 mM (inactive)
COc1cc(OC)c2ccc(=O)oc2c1 | > 4 mM (inactive)
Cc1cc(NC(=O)NCCCSc2nncn2C)no1 | > 4 mM (inactive)
Nc1nc(SCc2ccc3c(c2)OCO3)n[nH]1 | > 4 mM (inactive)
Clc1ccccc1OCc1nc(-c2ccccn2)no1 | > 4 mM (inactive)
O=C1c2ccccc2-c2ncnc3cccc1c23 | > 4 mM (inactive)
O=C(c1cccc(C(F)(F)F)c1)N1CCCC1 | > 4 mM (inactive)
